According to ChEMBL document CHEMBL3608278 (J Med Chem, 2015):
Bridge positions count the residues as written; N and C are the ends. Square brackets hold non-standard residues; d marks the D form. Peptide text beside a SMILES is read from it. 1Nal = N[C@@H](Cc1cccc2ccccc12)C(=O)O

Assays:
[1] = biological target: T1, Potassium voltage-gated channel subfamily A member 3 (Homo sapiens, UniProt P22001); type: cell-based, CHO-K1
[2] = biological target: T1, Potassium voltage-gated channel subfamily A member 3; set-up: species or system Blood
[3] = biological target: T1, Potassium voltage-gated channel subfamily A member 3; experiment: cell-based; set-up: species or system Blood

T1 sequence (P22001 whole entry): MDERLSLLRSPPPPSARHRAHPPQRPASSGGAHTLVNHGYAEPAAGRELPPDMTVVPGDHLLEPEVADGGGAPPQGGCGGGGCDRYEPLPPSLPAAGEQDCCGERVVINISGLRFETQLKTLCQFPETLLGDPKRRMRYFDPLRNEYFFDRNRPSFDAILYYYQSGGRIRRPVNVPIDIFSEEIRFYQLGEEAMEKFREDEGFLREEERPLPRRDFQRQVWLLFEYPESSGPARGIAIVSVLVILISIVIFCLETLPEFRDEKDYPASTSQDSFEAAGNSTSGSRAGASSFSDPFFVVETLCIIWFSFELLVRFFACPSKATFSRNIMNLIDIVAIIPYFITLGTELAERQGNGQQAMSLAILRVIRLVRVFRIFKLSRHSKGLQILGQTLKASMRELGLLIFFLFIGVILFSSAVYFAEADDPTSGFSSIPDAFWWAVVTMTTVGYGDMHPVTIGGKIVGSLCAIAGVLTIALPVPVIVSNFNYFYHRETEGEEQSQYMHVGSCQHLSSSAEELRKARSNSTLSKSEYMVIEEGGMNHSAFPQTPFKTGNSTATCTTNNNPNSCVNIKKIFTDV

CC[C@H](C)[C@@H]1NC(=O)[C@@H](NC(=O)[C@H](CO)NC(=O)[C@@H](N)CCCNC(=N)N)CSSC[C@@H](C(=O)O)NC(=O)[C@H]([C@@H](C)O)NC(=O)CNC(=O)[C@@H]2CSSC[C@@H]3NC(=O)[C@H](CCC(N)=O)NC(=O)[C@H](Cc4ccccc4)NC(=O)[C@H](C)NC(=O)[C@H]([C@@H](C)O)NC(=O)[C@H](CSSC[C@H](NC(=O)[C@H](Cc4ccccc4)NC(=O)[C@H](CO)NC(=O)[C@H](CC(C)C)NC(=O)[C@H](CCCNC(=N)N)NC(=O)[C@H](Cc4ccc(O)cc4)NC(=O)[C@H](CCCCN)NC(=O)[C@H](CCSC)NC(=O)[C@H](CO)NC(=O)[C@H](Cc4cnc[nH]4)NC(=O)[C@H](CCCCN)NC3=O)C(=O)N[C@@H](CCCNC(=N)N)C(=O)N[C@@H](CCCCN)C(=O)N[C@@H]([C@@H](C)O)C(=O)N2)NC(=O)[C@H](CCCNC(=N)N)NC(=O)[C@H](CCCCN)NC(=O)[C@H](CCCCN)NC(=O)[C@@H]2CCCN2C(=O)[C@H]([C@@H](C)CC)NC(=O)[C@H]([C@@H](C)O)NC(=O)[C@H](CC(=O)O)NC1=O
IC50 [1]: 0.184 nM | IC50 [2]: 0.082 nM | IC50 [3]: 0.052 nM

CC[C@H](C)[C@@H]1NC(=O)[C@@H](NC(=O)[C@H](CO)NC(=O)[C@@H](N)CCCNC(=N)N)CSSC[C@@H](C(=O)O)NC(=O)[C@H]([C@@H](C)O)NC(=O)CNC(=O)[C@@H]2CSSC[C@@H]3NC(=O)[C@H](CCC(N)=O)NC(=O)[C@H](Cc4ccccc4)NC(=O)[C@H](C)NC(=O)[C@H]([C@@H](C)O)NC(=O)[C@H](CSSC[C@H](NC(=O)[C@H](Cc4ccccc4)NC(=O)[C@H](CO)NC(=O)[C@H](CC(C)C)NC(=O)[C@H](CCCNC(=N)N)NC(=O)[C@H](Cc4ccc(O)cc4)NC(=O)[C@H](Cc4cccc5ccccc45)NC(=O)[C@H](CCSC)NC(=O)[C@H](CO)NC(=O)[C@H](Cc4cnc[nH]4)NC(=O)[C@H](CCCCN)NC3=O)C(=O)N[C@@H](CCCNC(=N)N)C(=O)N[C@@H](CCCCN)C(=O)N[C@@H]([C@@H](C)O)C(=O)N2)NC(=O)[C@H](CCCNC(=N)N)NC(=O)[C@H](CO)NC(=O)[C@H](CCCCN)NC(=O)[C@@H]2CCCN2C(=O)[C@H]([C@@H](C)CC)NC(=O)[C@H]([C@@H](C)O)NC(=O)[C@H](CC(=O)O)NC1=O
IC50 [1]: > 3.33 nM | IC50 [2]: > 100 nM | IC50 [3]: > 100 nM

CC[C@H](C)[C@@H]1NC(=O)[C@@H](NC(=O)[C@H](CO)NC(=O)[C@@H](N)CCCNC(=N)N)CSSC[C@@H](C(=O)O)NC(=O)[C@H]([C@@H](C)O)NC(=O)CNC(=O)[C@@H]2CSSC[C@@H]3NC(=O)[C@H](CCC(N)=O)NC(=O)[C@H](Cc4ccccc4)NC(=O)[C@H](C)NC(=O)[C@H]([C@@H](C)O)NC(=O)[C@H](CSSC[C@H](NC(=O)[C@H](Cc4ccccc4)NC(=O)[C@H](CO)NC(=O)[C@H](CC(C)C)NC(=O)[C@H](CCCNC(=N)N)NC(=O)[C@H](Cc4ccc(O)cc4)NC(=O)[C@H](CCCCN)NC(=O)[C@H](Cc4cccc5ccccc45)NC(=O)[C@H](CO)NC(=O)[C@H](Cc4cnc[nH]4)NC(=O)[C@H](CCCCN)NC3=O)C(=O)N[C@@H](CCCNC(=N)N)C(=O)N[C@@H](CCCCN)C(=O)N[C@@H]([C@@H](C)O)C(=O)N2)NC(=O)[C@H](CCCNC(=N)N)NC(=O)[C@H](CO)NC(=O)[C@H](CCCCN)NC(=O)[C@@H]2CCCN2C(=O)[C@H]([C@@H](C)CC)NC(=O)[C@H]([C@@H](C)O)NC(=O)[C@H](CC(=O)O)NC1=O
IC50 [1]: 0.853 nM | IC50 [2]: 8.13 nM | IC50 [3]: 6.59 nM

CC[C@H](C)[C@@H]1NC(=O)[C@@H](NC(=O)[C@H](CO)NC(=O)[C@@H](N)CCCNC(=N)N)CSSC[C@@H](C(=O)O)NC(=O)[C@H]([C@@H](C)O)NC(=O)CNC(=O)[C@@H]2CSSC[C@@H]3NC(=O)[C@H](CCC(N)=O)NC(=O)[C@H](Cc4ccccc4)NC(=O)[C@H](C)NC(=O)[C@H]([C@@H](C)O)NC(=O)[C@H](CSSC[C@H](NC(=O)[C@H](Cc4ccccc4)NC(=O)[C@H](CO)NC(=O)[C@H](CC(C)C)NC(=O)[C@H](CCCNC(=N)N)NC(=O)[C@H](Cc4ccc(O)cc4)NC(=O)[C@H](CCCCN)NC(=O)[C@H](CCSC)NC(=O)[C@H](CCC(=O)O)NC(=O)[C@H](Cc4cnc[nH]4)NC(=O)[C@H](CCCCN)NC3=O)C(=O)N[C@@H](CCCNC(=N)N)C(=O)N[C@@H](CCCCN)C(=O)N[C@@H]([C@@H](C)O)C(=O)N2)NC(=O)[C@H](CCCNC(=N)N)NC(=O)[C@H](CO)NC(=O)[C@H](CCCCN)NC(=O)[C@@H]2CCCN2C(=O)[C@H]([C@@H](C)CC)NC(=O)[C@H]([C@@H](C)O)NC(=O)[C@H](CC(=O)O)NC1=O
IC50 [1]: > 3.33 nM | IC50 [2]: > 92 nM | IC50 [3]: > 92 nM

CC[C@H](C)[C@@H]1NC(=O)[C@@H](NC(=O)[C@H](CO)NC(=O)[C@@H](N)CCCNC(=N)N)CSSC[C@@H](C(=O)O)NC(=O)[C@H]([C@@H](C)O)NC(=O)CNC(=O)[C@@H]2CSSC[C@@H]3NC(=O)[C@H](CCC(N)=O)NC(=O)[C@H](CCC(=O)O)NC(=O)[C@H](C)NC(=O)[C@H]([C@@H](C)O)NC(=O)[C@H](CSSC[C@H](NC(=O)[C@H](Cc4ccccc4)NC(=O)[C@H](CO)NC(=O)[C@H](CC(C)C)NC(=O)[C@H](CCCNC(=N)N)NC(=O)[C@H](Cc4ccc(O)cc4)NC(=O)[C@H](CCCCN)NC(=O)[C@H](CCSC)NC(=O)[C@H](CO)NC(=O)[C@H](C)NC(=O)[C@H](CCCCN)NC3=O)C(=O)N[C@@H](CCCNC(=N)N)C(=O)N[C@@H](CCCCN)C(=O)N[C@@H]([C@@H](C)O)C(=O)N2)NC(=O)[C@H](CCCNC(=N)N)NC(=O)[C@H](CO)NC(=O)[C@H](CCCCN)NC(=O)[C@@H]2CCCN2C(=O)[C@H]([C@@H](C)CC)NC(=O)[C@H]([C@@H](C)O)NC(=O)[C@H](CC(=O)O)NC1=O (H-RSCIDTIPKSRCTAEQCKASMKYRLSFCRKTCGTC-OH; disulfide 3-35, 12-28, 17-32)
IC50 [1]: 0.267 nM | IC50 [2]: 0.575 nM | IC50 [3]: 0.312 nM

CC[C@H](C)[C@@H]1NC(=O)[C@@H](NC(=O)[C@H](CO)NC(=O)[C@@H](N)CCCNC(=N)N)CSSC[C@@H](C(=O)O)NC(=O)[C@H]([C@@H](C)O)NC(=O)CNC(=O)[C@@H]2CSSC[C@@H]3NC(=O)[C@H](CCC(N)=O)NC(=O)[C@H](Cc4ccccc4)NC(=O)[C@H](C)NC(=O)[C@H]([C@@H](C)O)NC(=O)[C@H](CSSC[C@H](NC(=O)[C@H](Cc4ccccc4)NC(=O)[C@H](CO)NC(=O)[C@H](CC(C)C)NC(=O)[C@H](CCCNC(=N)N)NC(=O)[C@H](Cc4ccc(O)cc4)NC(=O)[C@H](CCCCN)NC(=O)[C@H](CCSC)NC(=O)[C@H](CO)NC(=O)[C@H](Cc4cnc[nH]4)NC(=O)[C@H](CCCCN)NC3=O)C(=O)N[C@@H](CCCNC(=N)N)C(=O)N[C@@H](CCCCN)C(=O)N[C@@H]([C@@H](C)O)C(=O)N2)NC(=O)[C@H](CCCNC(=N)N)NC(=O)[C@H](CO)NC(=O)[C@H](CCCCN)NC(=O)[C@@H]2CCCN2C(=O)[C@H](CCCCN)NC(=O)[C@H]([C@@H](C)O)NC(=O)[C@H](CC(=O)O)NC1=O
IC50 [1]: 0.561 nM | IC50 [2]: 13.5 nM | IC50 [3]: 4.67 nM

CC[C@H](C)[C@@H]1NC(=O)[C@@H](NC(=O)[C@H](CO)NC(=O)[C@@H](N)CCCNC(=N)N)CSSC[C@@H](C(=O)O)NC(=O)[C@H]([C@@H](C)O)NC(=O)CNC(=O)[C@@H]2CSSC[C@@H]3NC(=O)[C@H](CCC(N)=O)NC(=O)[C@H](Cc4ccccc4)NC(=O)[C@H](C)NC(=O)[C@H]([C@@H](C)O)NC(=O)[C@H](CSSC[C@H](NC(=O)[C@H](Cc4ccccc4)NC(=O)[C@H](CO)NC(=O)[C@H](CC(C)C)NC(=O)[C@H](CCCNC(=N)N)NC(=O)[C@H](Cc4ccc(O)cc4)NC(=O)[C@H](CCCCN)NC(=O)[C@H](CCSC)NC(=O)[C@H](CCCCN)NC(=O)[C@H](Cc4cnc[nH]4)NC(=O)[C@H](CCCCN)NC3=O)C(=O)N[C@@H](CCCNC(=N)N)C(=O)N[C@@H](CCCCN)C(=O)N[C@@H]([C@@H](C)O)C(=O)N2)NC(=O)[C@H](CCCNC(=N)N)NC(=O)[C@H](CO)NC(=O)[C@H](CCCCN)NC(=O)[C@@H]2CCCN2C(=O)[C@H]([C@@H](C)CC)NC(=O)[C@H]([C@@H](C)O)NC(=O)[C@H](CC(=O)O)NC1=O
IC50 [1]: 0.193 nM | IC50 [2]: 0.193 nM | IC50 [3]: 0.108 nM

CC[C@H](C)[C@@H]1NC(=O)[C@@H](NC(=O)[C@H](CO)NC(=O)[C@@H](N)CCCNC(=N)N)CSSC[C@@H](C(=O)O)NC(=O)[C@H]([C@@H](C)O)NC(=O)CNC(=O)[C@@H]2CSSC[C@@H]3NC(=O)[C@H](CCC(N)=O)NC(=O)[C@H](Cc4ccccc4)NC(=O)[C@H](Cc4cccc5ccccc45)NC(=O)[C@H]([C@@H](C)O)NC(=O)[C@H](CSSC[C@H](NC(=O)[C@H](Cc4ccccc4)NC(=O)[C@H](CO)NC(=O)[C@H](CC(C)C)NC(=O)[C@H](CCCNC(=N)N)NC(=O)[C@H](Cc4ccc(O)cc4)NC(=O)[C@H](CCCCN)NC(=O)[C@H](CCSC)NC(=O)[C@H](CO)NC(=O)[C@H](Cc4cnc[nH]4)NC(=O)[C@H](CCCCN)NC3=O)C(=O)N[C@@H](CCCNC(=N)N)C(=O)N[C@@H](CCCCN)C(=O)N[C@@H]([C@@H](C)O)C(=O)N2)NC(=O)[C@H](CCCNC(=N)N)NC(=O)[C@H](CO)NC(=O)[C@H](CCCCN)NC(=O)[C@@H]2CCCN2C(=O)[C@H]([C@@H](C)CC)NC(=O)[C@H]([C@@H](C)O)NC(=O)[C@H](Cc2cccc3ccccc23)NC1=O (H-RSCI[1Nal]TIPKSRCT[1Nal]FQCKHSMKYRLSFCRKTCGTC-OH; disulfide 3-35, 12-28, 17-32)
IC50 [1]: 0.039 nM | IC50 [2]: 0.11 nM | IC50 [3]: 0.089 nM
